According to US12150998B2, “Bicyclic peptide ligands specific for P-selectin” (BicycleTx Limited, priority 2021, dated 2024):
Starred links: 1 amine or outer side, 2 acyl side, 3 side chain; linkers in the order of their positions; H or OH if unused. Positions of bridges follow the written chain, without caps; N, C: chain ends. Non-standard residues stand in square brackets, D forms with d. Residues, ends and D or L forms follow the SMILES beside them. Chains are numbered I, II in the order given. X5 = O=C(CCCC(=O)NCCOCCOCCOCCOCCOCCOCCOCCOCCOCCOCCn1cc(CCC(=O)[*:2])nn1)NCCOCCOCCOCCOCCOCCOCCOCCOCCOCCOCCn1cc(CCC(=O)[*:1])nn1; TATA = O=C(CC[*:1])N1CN(C(=O)CC[*:2])CN(C(=O)CC[*:3])C1; X1 = O=C(C[*:1])N1CCN(C(=O)C[*:2])CCN(C(=O)C[*:3])CC1; 1Nal = N[C@@H](Cc1cccc2ccccc12)C(=O)O

How the values were obtained:
human P-Selectin protein = molecular target: T1, human P-Selectin protein (Homo sapiens, UniProt P16109); assay: SPR binding assay (Biacore); conditions: recombinant biotinylated human P-Selectin, 25° C.; read-out: Affinity KD determined by SPR
T1 sequence (P16109 42-830): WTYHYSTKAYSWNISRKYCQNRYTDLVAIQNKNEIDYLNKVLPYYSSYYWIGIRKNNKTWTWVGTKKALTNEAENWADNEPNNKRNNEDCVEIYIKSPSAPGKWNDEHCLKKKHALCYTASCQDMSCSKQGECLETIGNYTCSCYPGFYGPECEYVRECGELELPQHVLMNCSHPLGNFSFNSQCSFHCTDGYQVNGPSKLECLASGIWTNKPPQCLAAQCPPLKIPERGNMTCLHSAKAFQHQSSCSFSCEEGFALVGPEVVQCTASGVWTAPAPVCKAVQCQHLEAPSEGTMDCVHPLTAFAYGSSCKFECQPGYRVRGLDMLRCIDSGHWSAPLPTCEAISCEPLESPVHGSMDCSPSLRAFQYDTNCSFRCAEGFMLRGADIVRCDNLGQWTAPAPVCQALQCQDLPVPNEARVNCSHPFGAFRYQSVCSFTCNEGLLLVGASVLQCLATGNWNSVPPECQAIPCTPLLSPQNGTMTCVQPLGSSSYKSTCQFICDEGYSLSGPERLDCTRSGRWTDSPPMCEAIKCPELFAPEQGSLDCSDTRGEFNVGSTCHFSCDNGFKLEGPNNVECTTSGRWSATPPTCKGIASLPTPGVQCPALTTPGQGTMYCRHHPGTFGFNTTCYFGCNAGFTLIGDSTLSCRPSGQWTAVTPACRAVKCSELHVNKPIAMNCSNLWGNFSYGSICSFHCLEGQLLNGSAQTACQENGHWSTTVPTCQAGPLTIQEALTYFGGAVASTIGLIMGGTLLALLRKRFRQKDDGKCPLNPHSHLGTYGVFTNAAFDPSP
Method: Biacore experiments were performed to determine ka (M−1s−1), kd (s−1), KD (nM) values of monomeric peptides binding to human Selectin proteins. Recombinant biotinylated human P-Selectin protein was used. For analysis of binding, either a Biacore 3000 or 5200 instrument was used with a CMS sensor chip (GE Healthcare). For sensor chip surface preparation, streptavidin was immobilized on the chip using standard amine-coupling chemistry at 25° C. with HBS-N (10 mM HEPES, 0.15 M NaCl, pH 7.4) as the running buffer. The carboxymethyl dextran surface was activated with a 12 min injection of a 1:1 ratio of 0.4 M 1-ethyl-3-(3-dim ethyl aminopropyl) carbodiimide hydrochloride (EDC)/0.1 M N-hydroxy succinimide (NHS) at a flow rate of 10 μl/min. For capture of streptavidin, protein was diluted to 0.2 mg/ml in 10 mM sodium acetate (pH 4.5) and captured by injecting 70 μl onto the activated chip surface. Residual activated groups were blocked with a 7 min injection of 1 M ethanolamine (pH 8.5). Biotinylated protein stock was diluted 1:100 in HBS-N and captured on one flow cell at 5 μl/min to a level of 1000-1500 RU. Buffer was changed to PBS/0.05% Tween 20 and a dilution series of the peptides was prepared in this buffer with a final DMSO concentration of 0.5%. The top concentration of the analyte varied from 200 nM to 50 μM; depending on predicted affinity of the interaction. In all cases a titration was performed with either seven 2-fold dilutions or five 3-fold dilutions. The SPR analysis was run at 25° C. with a flow rate of 50-80 μl/min with 60 seconds association and a suitable disassociation period (100-900 seconds). Data were corrected for DMSO excluded volume effects. All data were double-referenced for blank injections and reference surface using standard processing procedures and data processing and kinetic fitting were performed using Scrubber software, version 2.0c (BioLogic Software). Data were fitted using mass transport model allowing for mass transport effects where appropriate.

[1] = molecular target: T2, P-Selectin:PSGL1 interaction (Homo sapiens, UniProt P16109); assay: Receptor ligand inhibition assay (P-Selectin binding to HL-60 cells); format: cell-based; conditions: geomean of n=3; for IC50: 5 nM P-Selectin, HL-60 cells, read-out: IC50; for Inhibition at top concentration: 100−% response at top concentration
T2 construct: host or cells: HL-60 cells (ATCC, CCL-240) supply the PSGL-1 partner endogenously
T2 sequence (P16109 42-771 limits assumed): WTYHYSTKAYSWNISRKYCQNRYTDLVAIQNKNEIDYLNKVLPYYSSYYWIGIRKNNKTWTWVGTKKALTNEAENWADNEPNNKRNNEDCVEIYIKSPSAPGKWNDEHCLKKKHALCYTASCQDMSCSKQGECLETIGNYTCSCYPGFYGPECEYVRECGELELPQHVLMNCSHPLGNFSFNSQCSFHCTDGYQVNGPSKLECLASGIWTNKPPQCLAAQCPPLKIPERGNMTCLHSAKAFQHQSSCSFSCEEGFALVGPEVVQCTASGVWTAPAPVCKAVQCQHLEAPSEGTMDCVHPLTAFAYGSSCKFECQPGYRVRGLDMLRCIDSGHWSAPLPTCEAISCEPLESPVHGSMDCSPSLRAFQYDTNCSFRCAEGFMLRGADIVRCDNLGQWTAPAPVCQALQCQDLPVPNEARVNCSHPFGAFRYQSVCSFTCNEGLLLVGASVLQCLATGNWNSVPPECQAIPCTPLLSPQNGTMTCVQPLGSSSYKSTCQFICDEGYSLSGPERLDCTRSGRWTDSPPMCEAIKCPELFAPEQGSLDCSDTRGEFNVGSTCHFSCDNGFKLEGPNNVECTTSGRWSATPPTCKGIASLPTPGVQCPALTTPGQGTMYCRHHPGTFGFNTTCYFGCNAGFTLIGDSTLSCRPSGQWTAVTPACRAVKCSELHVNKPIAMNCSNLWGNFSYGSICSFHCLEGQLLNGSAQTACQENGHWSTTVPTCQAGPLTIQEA
Method: Bicycle test samples, SelG1 (Crizanlizumab) were serially diluted maintaining 0.5% DMSO in assay buffer (25 mM HEPES, 121 mM NaCl, 5.4 mM KCl, 0.8 mM MgCl2, 1.8 mM CaCl2), 6 mM […], 5.5 mM glucose, 1% BSA, pH7.4) and transferred to 384 well clear bottom plates (Corning, 3712) with a final volume of 6 μL. […], of P-Selectin in imaging buffer (25 mM HEPES, 121 mM NaCl, 5.4 mM KCl, 0.8 mM MgCl2, 1.8 mM CaCl2), 6 mM […], 5.5 mM glucose, pH7.4) was added to give a 5 nM final concentration and incubated at room temperature for 15 minutes. HL-60 cells (ATCC, CCL-240) mixed with 1 μg/mL far red labelled wheat germ agglutinin (WGA, ThermoFisher W21404) and 1 μg/mL AlexaFluor 488-streptavidin (Invitrogen S11223) were added to the plate and incubated for 2 hours at room temperature in the absence of light. Staining and antibody binding were quantified by simultaneously scanning the microplates with 488 nm and 640 nm lasers on a mirrorball microplate cytometer, AF488 on FL2 triggering on AF647-WGA on FL4. Data was analysed in Dotmatics, using a four parameter logistic fit to generate IC50 values and % response. Percent inhibition was calculated using 100−% response at top concentration.

| SMILES | Kd (human P-Selectin protein) [nM] | IC50 [1] [nM] | Inhibition at top concentration [1] [%] |
| --- | --- | --- | --- |
| CSCC[C@@H]1NC(=O)[C@H](Cc2ccc(O)cc2)NC(=O)[C@@H](NC(=O)[C@H](C)NC(C)=O)CSCCC(=O)N2CN3CN(C2)C(=O)CCSC[C@H](NC(=O)[C@H](Cc2c[nH]c4ccccc24)NC(=O)[C@H](CCC(=O)O)NC1=O)C(=O)N[C@@H](CC(=O)O)C(=O)N[C@@H](C(C)C)C(=O)N[C@@H]([C@@H](C)O)C(=O)N[C@@H](CC(=O)O)C(=O)N[C@@H](Cc1ccc(O)cc1)C(=O)NCC(=O)N[C@H](C(=O)N[C@@H](CCCCNC(=O)CCc1cn(CCOCCOCCOCCOCCOCCOCCOCCOCCOCCOCCNC(=O)CCCC(=O)NCCOCCOCCOCCOCCOCCOCCOCCOCCOCCOCCn2cc(CCC(=O)NCCCC[C@H](NC(=O)[C@@H]4CSCCC(=O)N5CN6CN(C5)C(=O)CCSC[C@H](NC(=O)[C@H](Cc5c[nH]c7ccccc57)NC(=O)[C@H](CCC(=O)O)NC(=O)[C@H](CCSC)NC(=O)[C@H](Cc5ccc(O)cc5)NC(=O)[C@@H](NC(=O)[C@H](C)NC(C)=O)CSCCC6=O)C(=O)N[C@@H](CC(=O)O)C(=O)N[C@@H](C(C)C)C(=O)N[C@@H]([C@@H](C)O)C(=O)N[C@@H](CC(=O)O)C(=O)N[C@@H](Cc5ccc(O)cc5)C(=O)NCC(=O)N4)C(N)=O)nn2)nn1)C(N)=O)CSCCC3=O [BCY5456] (I: Ac-ACYMEWCDVTDYGCK-NH2 / II: Ac-ACYMEWCDVTDYGCK-NH2; linker I:2-I:7-I:14, II:2-II:7-II:14 via TATA; linker I:15-II:15 via X5) | 500 |  |  |
| CSCC[C@@H]1NC(=O)[C@H](Cc2ccc(O)cc2)NC(=O)[C@@H](NC(=O)[C@H](C)NC(C)=O)CSCCC(=O)N2CN3CN(C2)C(=O)CCSC[C@H](NC(=O)[C@H](Cc2cccc4ccccc24)NC(=O)[C@H](CCC(=O)O)NC1=O)C(=O)N[C@@H](CC(=O)O)C(=O)N[C@@H](C(C)C)C(=O)N[C@@H]([C@@H](C)O)C(=O)N[C@@H](CC(=O)O)C(=O)N[C@@H](Cc1ccc(O)cc1)C(=O)NCC(=O)N[C@H](C(=O)N[C@@H](C)C(N)=O)CSCCC3=O [BCY11279, Ac-A-(SEQ ID NO: 4)-A] (Ac-ACYME[1Nal]CDVTDYGCA-NH2; linker 2-7-14 via TATA) |  | > 3540 | 24 |
| CSCC[C@@H]1NC(=O)[C@H](Cc2ccc(O)cc2)NC(=O)[C@@H](NC(C)=O)CSCCC(=O)N2CN3CN(C2)C(=O)CCSC[C@H](NC(=O)[C@H](Cc2c[nH]c4ccccc24)NC(=O)[C@H](CCC(=O)O)NC1=O)C(=O)N[C@@H](CC(=O)O)C(=O)N[C@@H](C(C)C)C(=O)N[C@@H]([C@@H](C)O)C(=O)N[C@@H](CC(=O)O)C(=O)N[C@@H](Cc1ccc(O)cc1)C(=O)NCC(=O)N[C@H](C(N)=O)CSCCC3=O [BCY9717, Ac-(SEQ ID NO: 6)] (Ac-CYMEWCDVTDYGC-NH2; linker 1-6-13 via TATA; C-terminus assumed) |  | > 10900 | 20 |
| CC(C)C[C@@H]1NC(=O)[C@H](CO)NC(=O)[C@@H]2CCCN2C(=O)[C@H](C(C)C)NC(=O)[C@H](CC(=O)O)NC(=O)[C@@H]2CSCC(=O)N3CCN(CCN(CC3)C(=O)CSC[C@@H](C(=O)N[C@@H](C)C(N)=O)NC(=O)[C@@H]3CCCN3C1=O)C(=O)CSC[C@H](NC(=O)[C@H](C)N)C(=O)N[C@@H](CC(=O)O)C(=O)N[C@@H](C)C(=O)N[C@@H](CC(=O)O)C(=O)N[C@@H](Cc1c[nH]c3ccccc13)C(=O)N2 [BCY11648, A-(SEQ ID NO: 3)-A] (H-ACDADWCDVPSLPCA-NH2; linker 2-7-14 via X1; N-terminus and C-terminus assumed) |  | > 117 | 37 |
